Measured values published in article PMC6609034, “Unraveling the role of the secretor antigen in human rotavirus attachment to histo-blood group antigens” (PLoS Pathogens, 2019).

Columns and labels:
[1] = test system: P[8]c VP8* mutant W174A (M1); assay: SPR binding of VP8* mutant; parameters: species or system human rotavirus
Excerpt: (§1) Selected residues in the GST::VP8* P[8] were replaced for alanine or valine according to the structural data of the LNB binding site. Four mutants (M1–M4) were constructed using a Quick-Change site-directed mutagenesis kit (Stratagene) and appropriate oligonucleotides (S5 Table), and the DNA changes were confirmed by DNA sequencing. Mutant M1, M2 and M3 contained changes in the codons for tryptophan 174, arginine 209 and glutamic 212 residues, respectively, that introduced an alanine at each position. Mutant M4 substituted isoleucine 173 by valine.
(§2) The affinity assays were based on SPR and performed in a Biacore T100 instrument (GE Healthcare). H1 PAA-biotin and LNB PAA-biotin were diluted to a concentration of 1 mg/ml in water and captured with streptavidin present in a SA sensor chip (GE Healthcare). H1 was immobilized in channel 2 (630 RU) of the sensor chip and LNB was immobilized in channel 4 (624 RU). The channels 1 and 3 were used as the reference surfaces for channels 2 and 4, respectively. The immobilization process was performed by conditioning the sensor chip surface with three consecutive 1-minute injections of 1 M NaCl 50 mM NaOH before biotinylated ligands were immobilized at a flow rate of 15 μl/min. The affinity assays of VP8* polypeptides to biotinylated sugars were performed at 10°C using 1X HBS-EP^+ buffer (0.01 M HEPES pH 7.4, 0.15 M NaCl, 3 mM EDTA, 0.005% Surfactant P20), a flow rate of 5 μl/min with 2700 seconds of contact time and a dissociation time of 1800 seconds. The regeneration step consisted in a wash step with 10 mM Glycine-HCl pH 2 for 20 seconds at the same flow rate. The assays were performed with purified VP8* at different concentrations (45; 137; 411; 1,234; 3,703; 11,111; 33,333; 100,000 and 200,000 nM). Each run included three blanks without sample. The affinity data were obtained after analysis of sensorgrams performed with the BIAevaluation 2.0 software (GE Healthcare). Since multivalent oligosaccharides are immobilized on a sensor chip surface, avidity and rebinding effects can take place and apparent affinity constants (Kda) are calculated with this experimental setup. Kda values were obtained from the steady-state kinetics experiment as the ligand concentration needed to achieve a half-maximum binding at equilibrium. The experiments were made in triplicate. Graphical representation of signal/concentration curves were plotted using GraphPad Prism 6 for MacOsX.

[2] = test system: P[8]c VP8* mutant R209A (M2); assay: SPR binding of VP8* mutant; parameters: species or system human rotavirus
Excerpt: as §1, §2

[3] = test system: P[8]c VP8* mutant E212A (M3); assay: SPR binding of VP8* mutant; parameters: species or system human rotavirus
Excerpt: as §1, §2

[4] = test system: VP8* P[8]; assay: ELISA-like binding assay to biotinylated HBGAs; parameters: species or system human rotavirus; settings: biotinylated PAA glycan 2 μg/ml, VP8* 10 μg/ml
Excerpt: A panel of biotinylated sugar antigens including Le^a, Le^b, Le^c (lacto-N-biose; LNB), H type-1, H type-2 and blood group A and B trisaccharides were purchased from Glyconz (Fig 1 and S1 Table). These glycans are biotinylated neoglyconjugates of a poly[N-(2-hydroxyethyl)acrylamide] (PAA) with a size from 30 to 50 KDa. This forms a flexible polymer ideal for a multivalent presentation of glycans. Immobilized streptavidin F96 black plates (Nunc) were coated with the biotinylated oligosaccharides (2 μg/ml) in milli-Q water and incubated during 1 hour at 37°C. After functionalization the plates were washed once with PBS containing 0.05% of Tween 20 (PBS-T) and the VP8* proteins were added (10 μg/ml) and incubated at 4°C overnight. After three washes with PBS-T, a rabbit polyclonal antibody anti GST (1:1,000) (Abcam) was added and the plates were incubated one hour at 37°C. Then, the plates were washed three times with PBS-T and incubated for 1 h at 37°C with 1:10,000 dilution of horseradish peroxidase (HRP)-conjugated goat anti-rabbit (Abcam). After three washes with PBS-T, the binding was detected using QuantaBlue reagent (ThermoFisher) kit, as recommended by the manufacturer. Fluorescence units were registered by a MultiScan microplate reader. All the binding assays were performed in triplicate.

[5] = molecular target: T1, P[8]c M4(Ile173Val) VP8* (Rotavirus A, UniProt A0A0S0VKY7, I110V); assay: SPR apparent affinity of VP8* for immobilized HBGAs; format: binding, human rotavirus; settings: for Kd: PAA-biotin glycan immobilized on SA chip, VP8* as analyte, 10°C, ± standard deviation, read-out: Kda (apparent affinity constant)
T1 sequence (A0A0S0VKY7 1-161 I110V): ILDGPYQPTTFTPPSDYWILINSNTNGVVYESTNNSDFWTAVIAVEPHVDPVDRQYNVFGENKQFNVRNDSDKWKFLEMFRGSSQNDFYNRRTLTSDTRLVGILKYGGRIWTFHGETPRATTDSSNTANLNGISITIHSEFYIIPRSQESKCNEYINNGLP
Excerpt: as §1
as §2, with “The affinity data were obtained after analysis of sensorgrams performed with the BIAevaluation 2.0 software (GE Healthcare).” left out, “Kda values were obtained from the steady-state kinetics experiment as the ligand concentration needed to achieve a half-maximum binding at equilibrium. The experiments were made in triplicate. Graphical representation of signal/concentration curves were plotted using GraphPad Prism 6 for MacOsX.” left out

[6] = molecular target: T2, VP8* P[8]Wa (lineage I) (Rotavirus A, UniProt P11193); assay: as above; format: binding, human rotavirus; settings: PAA-biotin glycan immobilized on SA chip, VP8* as analyte, 10°C, ± standard deviation, read-out: Kda (apparent affinity constant)
T2 construct: amino acids 64–224 from the VP4 protein of rotavirus; GST (N); made in house; host or cells: E. coli BL21 (DE3)
T2 sequence (P11193 64-224): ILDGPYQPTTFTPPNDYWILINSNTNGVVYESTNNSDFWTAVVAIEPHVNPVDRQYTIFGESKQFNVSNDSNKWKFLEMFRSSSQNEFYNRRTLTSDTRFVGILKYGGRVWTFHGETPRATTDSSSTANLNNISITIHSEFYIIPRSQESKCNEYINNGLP
Description: as §2

[7] = molecular target: T3, VP8* P[8]c (clinical isolate, lineage III) (Rotavirus A, UniProt A0A0S0VKY7); assay: as above; format: binding, human rotavirus; settings: PAA-biotin glycan immobilized on SA chip, VP8* as analyte, 10°C, ± standard deviation, read-out: Kda (apparent affinity constant)
T3 sequence (A0A0S0VKY7 1-161): T1 sequence (A0A0S0VKY7 1-161 I110V)
Description: as §2

SMILES	binding by SPR [1]	binding by SPR [2]	binding by SPR [3]	binding (ELISA-like) [4]	Kd [5] [µM]	Kd [6] [µM]	Kd [7] [µM]	Kda of VP8 I173V compared to the wild-type protein ([5]; higher than wild-type P[8]c) [fold]
CC(=O)NC1C(O)OC(CO)C(O)C1OC1OC(CO)C(O)C(O)C1O (stereo not drawn) [LNB, Gal-β1,3-GlcNAc]	lost their ability to interact	lost their ability to interact	lost their ability to interact	recognize	49.4	66.5	52.1	
CC(=O)NC1C(O)OC(CO)C(O)C1OC1OC(CO)C(O)C(O)C1OC1OC(C)C(O)C(O)C1O (stereo not drawn) [H1, Fuc-α1,2-Gal-β1,3-GlcNAc]	lost their ability to interact	lost their ability to interact	lost their ability to interact	recognized	39	80.2	27.9	1.4
